What was measured:
Assay type in all cases: in vivo
[1] = tested on: barnyardgrass (Echinochloa crus-galli); experiment: Test A preemergence soil spray, visual injury rating 0-100; conditions: 10 days, 0 = no effect, 100 = complete control
How it was run: (§1)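 Compound in a non-phytotoxic, surfactant-containing solvent is applied either as a directed soil spray before seedlings emerge or onto emerged plants 2-10 cm tall; pots hold a loam-sand blend. Plants grow 10 days under greenhouse conditions and are rated by eye against untreated controls (0 no effect, 100 complete control).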

[2] = tested on: blackgrass (Alopecurus myosuroides); experiment: as above; conditions: 10 days, 0 = no effect, 100 = complete control
How it was run: as §1

corn (Zea mays) [3] = experiment: as above; conditions: 10 days, 0 = no effect, 100 = complete control
How it was run: as §1

[4] = tested on: green foxtail (Setaria viridis); experiment: as above; conditions: 10 days, 0 = no effect, 100 = complete control
How it was run: as §1

kochia (Bassia scoparia) [5] = experiment: as above; conditions: 10 days, 0 = no effect, 100 = complete control
How it was run: as §1

[6] = tested on: oat, wild (wild oat, Avena fatua); experiment: as above; conditions: 10 days, 0 = no effect, 100 = complete control
How it was run: as §1

[7] = tested on: palmer (palmer amaranth, palmer pigweed, Amaranthus palmeri); experiment: as above; conditions: 10 days, 0 = no effect, 100 = complete control
How it was run: as §1

[8] = tested on: ragweed (common ragweed, Ambrosia artemisiifolia); experiment: as above; conditions: 10 days, 0 = no effect, 100 = complete control
How it was run: as §1

[9] = tested on: ryegrass, Italian (italian ryegrass, Lolium multiflorum); experiment: as above; conditions: 10 days, 0 = no effect, 100 = complete control
How it was run: as §1

soybean (Glycine max) [10] = experiment: as above; conditions: 10 days, 0 = no effect, 100 = complete control
How it was run: as §1

[11] = tested on: wheat (Triticum aestivum); experiment: as above; conditions: 10 days, 0 = no effect, 100 = complete control
How it was run: as §1

[12] = tested on: barnyardgrass (Echinochloa crus-galli); experiment: Test A postemergence application, visual injury rating 0-100; conditions: 10 days
From the text: (§2) Seeds of plant species selected from barnyardgrass (Echinochloa crus-galli), blackgrass (Alopecurus myosuroides), corn (Zea mays), foxtail, giant (giant foxtail, Setaria faberi), green foxtail (Setaria viridis), goosegrass (Eleusine indica), kochia (Bassia scoparia), oat, wild (wild oat, Avena fatua), palmer (palmer amaranth, palmer pigweed, Amaranthus palmeri), ragweed (common ragweed, Ambrosia artemisiifolia), ryegrass, Italian (italian ryegrass, Lolium multiflorum), soybean (Glycine max) and wheat (Triticum aestivum) were planted into a blend of loam soil and sand and treated preemergence with a directed soil spray using test chemicals formulated in a non-phytotoxic solvent mixture which included a surfactant.
(§3) At the same time, plants selected from these crops and weed species and also galium (catchweed bedstraw, Galium aparine) and horseweed (Erigeron canadensis) were planted in pots containing the same blend of loam soil and sand and treated with postemergence applications of test chemicals formulated in the same manner. Plants ranged in height from 2 to 10 cm and were in the one- to two-leaf stage for the postemergence treatment. Treated plants and untreated controls were maintained in a greenhouse for 10 days, after which time all treated plants were compared to untreated controls and visually evaluated for injury. Plant response ratings, summarized in Table A, are based on a 0 to 100 scale where 0 is no effect and 100 is complete control. A dash (-) response means no test result.

[13] = tested on: blackgrass (Alopecurus myosuroides); experiment: as above; conditions: 10 days
From the text: as §2, §3

corn (Zea mays) [14] = experiment: as above; conditions: 10 days
From the text: as §2, §3

[15] = tested on: green foxtail (Setaria viridis); experiment: as above; conditions: 10 days
From the text: as §2, §3

[16] = tested on: horseweed (Erigeron canadensis); experiment: as above; conditions: 10 days
From the text: as §2, §3

kochia (Bassia scoparia) [17] = experiment: as above; conditions: 10 days
From the text: as §2, §3

[18] = tested on: oat, wild (wild oat, Avena fatua); experiment: as above; conditions: 10 days
From the text: as §2, §3

[19] = tested on: palmer (palmer amaranth, palmer pigweed, Amaranthus palmeri); experiment: as above; conditions: 10 days
From the text: as §2, §3

[20] = tested on: ragweed (common ragweed, Ambrosia artemisiifolia); experiment: as above; conditions: 10 days
From the text: as §2, §3

[21] = tested on: ryegrass, Italian (italian ryegrass, Lolium multiflorum); experiment: as above; conditions: 10 days
From the text: as §2, §3

soybean (Glycine max) [22] = experiment: as above; conditions: 10 days
From the text: as §2, §3

[23] = tested on: wheat (Triticum aestivum); experiment: as above; conditions: 10 days
From the text: as §2, §3

[24] = tested on: barnyardgrass (Echinochloa crusgalli); experiment: Test B flooded paddy test, visual plant response rating 0-100; conditions: 250 g ai/ha, Flood, applied to paddy water, evaluated after 13 days
How it was run: (§4)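 Plants were grown to the 2-leaf stage, then pots were flooded to 3 cm above the soil and compound was applied directly to the paddy water, with that depth kept throughout.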

[25] = tested on: ducksalad (Heteranthera limosa); experiment: as above; conditions: 250 g ai/ha, Flood, applied to paddy water, evaluated after 13 days
How it was run: as §4

rice (Oryza sativa) = experiment: as above; conditions: 250 g ai/ha, Flood, applied to paddy water, evaluated after 13 days
How it was run: as §4

[26] = tested on: sedge, umbrella (small-flower umbrella sedge, Cyperus difformis); experiment: as above; conditions: 250 g ai/ha, Flood, applied to paddy water, evaluated after 13 days
How it was run: as §4

[27] = 31 g ai/ha, postemergence, 0 = no effect, 100 = complete control
[28] = Postemergence, 125 g ai/ha, 0 is no effect, 100 is complete control

## CONC(=O)C1CC(NC(=O)C2(C)CN(c3cc(F)cc(F)c3)C(=O)O2)CO1 (centres unmarked) [Compound 39]
[1]; 31 g ai/ha
  Barnyardgrass plant response rating (0-100): 0
[1]; 125 g ai/ha
  Barnyardgrass plant response rating (0 to 100 scale): 20
[2]; 31 g ai/ha
  Blackgrass plant response rating (0-100): 0
[2]; 125 g ai/ha
  Blackgrass plant response rating (0 to 100 scale): 60
Corn (Zea mays) [3]; 31 g ai/ha
  Corn plant response rating (0-100): 0
Corn (Zea mays) [3]; 125 g ai/ha
  Corn plant response rating (0 to 100 scale): 0
[4]; 31 g ai/ha
  Foxtail, Green plant response rating (0-100): 0
[4]; 125 g ai/ha
  Foxtail, Green plant response rating (0 to 100 scale): 0
Kochia (Bassia scoparia) [5]; 31 g ai/ha
  Kochia plant response rating (0-100): 0
Kochia (Bassia scoparia) [5]; 125 g ai/ha
  Kochia plant response rating (0 to 100 scale): 20
[6]; 31 g ai/ha
  Oat, Wild plant response rating (0-100): 0
[6]; 125 g ai/ha
  Oat, Wild plant response rating (0 to 100 scale): 90
[7]; 31 g ai/ha
  Amaranth, Palmer plant response rating (0-100): 0
[7]; 125 g ai/ha
  Amaranth, Palmer plant response rating (0 to 100 scale): 0
[8]; 31 g ai/ha
  Ragweed plant response rating (0-100): 0
[8]; 125 g ai/ha
  Ragweed plant response rating (0 to 100 scale): 0
[9]; 31 g ai/ha
  Ryegrass, Italian plant response rating (0-100): 0
[9]; 125 g ai/ha
  Ryegrass, Italian plant response rating (0 to 100 scale): 40
Soybean (Glycine max) [10]; 31 g ai/ha
  Soybean plant response rating (0-100): 0
Soybean (Glycine max) [10]; 125 g ai/ha
  Soybean plant response rating (0 to 100 scale): 10
[11]; 31 g ai/ha
  Wheat plant response rating (0-100): 0
[11]; 125 g ai/ha
  Wheat plant response rating (0 to 100 scale): 90
[12]; [27]
  Barnyardgrass plant response rating (0-100): 10
[12]; [28]
  Barnyardgrass plant response rating (0 to 100 scale): 90
[13]; [27]
  Blackgrass plant response rating (0-100): 90
[13]; [28]
  Blackgrass plant response rating (0 to 100 scale): 100
Corn (Zea mays) [14]; [27]
  Corn plant response rating (0-100): 0
Corn (Zea mays) [14]; [28]
  Corn plant response rating (0 to 100 scale): 100
[15]; [27]
  Foxtail, Green plant response rating (0-100): 20
[15]; [28]
  Foxtail, Green plant response rating (0 to 100 scale): 90
[16]; [27]
  Horseweed plant response rating (0-100): 10
[16]; [28]
  Horseweed plant response rating (0 to 100 scale): 0
Kochia (Bassia scoparia) [17]; [27]
  Kochia plant response rating (0-100): 20
Kochia (Bassia scoparia) [17]; [28]
  Kochia plant response rating (0 to 100 scale): 50
[18]; [27]
  Oat, Wild plant response rating (0-100): 90
[18]; [28]
  Oat, Wild plant response rating (0 to 100 scale): 90
[19]; [27]
  Amaranth, Palmer plant response rating (0-100): 0
[19]; [28]
  Amaranth, Palmer / Pigweed, Palmer plant response rating (0 to 100 scale): 20
[20]; [27]
  Ragweed plant response rating (0-100): 0
[20]; [28]
  Ragweed plant response rating (0 to 100 scale): 20
[21]; [27]
  Ryegrass, Italian plant response rating (0-100): 30
[21]; [28]
  Ryegrass, Italian plant response rating (0 to 100 scale): 80
Soybean (Glycine max) [22]; [27]
  Soybean plant response rating (0-100): 20
Soybean (Glycine max) [22]; [28]
  Soybean plant response rating (0 to 100 scale): 60
[23]; [27]
  Wheat plant response rating (0-100): 90
[23]; [28]
  Wheat plant response rating (0 to 100 scale): 90
[24]
  Plant response rating, Barnyardgrass (0 to 100 scale, 0 is no effect and 100 is complete control): 0
[25]
  Plant response rating, Ducksalad (0 to 100 scale, 0 is no effect and 100 is complete control): 0
Rice (Oryza sativa)
  Plant response rating, Rice (0 to 100 scale, 0 is no effect and 100 is complete control): 0
[26]
  Plant response rating, Sedge, Umbrella (0 to 100 scale, 0 is no effect and 100 is complete control): 0

— patent publication US20260285850A1, “SUBSTITUTED OXAZOLIDINONES AND IMIDAZOLINONES AS HERBICIDES” (FMC CORPORATION, priority 2023, published 2026)
